According to US10533010B2, “Substituted indole Mcl-1 inhibitors” (Vanderbilt University, priority 2014, dated 2020):

These compounds were tested against recombinant Mcl-1 (residues 172-327) (Homo sapiens (Human), UniProt Q07820) (assay: Fluorescence polarization anisotropy competition assay (FITC-Bak or FITC-Bim BH3 peptide) with Mcl-1). Conditions: not given.
Format: binding

Sequence of recombinant Mcl-1 (residues 172-327) (Q07820 172-327): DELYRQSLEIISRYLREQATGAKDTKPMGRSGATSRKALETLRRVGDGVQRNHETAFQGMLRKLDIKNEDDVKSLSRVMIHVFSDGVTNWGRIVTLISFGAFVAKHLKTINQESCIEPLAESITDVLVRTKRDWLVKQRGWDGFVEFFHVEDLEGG

SMILES | Ki
Cc1cc(OCCCc2c3n(c4c(-c5c(C)nn(C)c5C)cc(Cl)cc24)CCCN(c2cc(C(=O)O)c4ccn(C)c4c2)C3=O)cc(C)c1Cl [I-244, 6-(9-chloro-11-(3-(4-chloro-3,5-dimethylphenoxy)propyl)-1-oxo-7-(1,3,5-trimethyl-1H-pyrazol-4-yl)-4,5-dihydro-1H-[1,4]diazepino[1,2-a]indol-2(3H)-yl)-1-methyl-1H-indole-4-carboxylic acid] | 101 to 299 nM

Same assay, conditions: Table 2; Ki bins given in nM; FITC-Bak or FITC-Bim peptide competition; Ki converted from IC50; read-out: Ki for Inhibition of Mcl-1

Ki | SMILES
< 50 nM | Cc1cc(OCCCc2c(C(=O)NC3CCN(C(=O)C(=O)O)CC3)[nH]c3c(-c4c(C)nn(C)c4C)cccc23)cc(C)c1Cl [I-319, 2-(4-(3-(3-(4-chloro-3,5-dimethylphenoxy)propyl)-7-(1,3,5-trimethyl-1H-pyrazol-4-yl)-1H-indole-2-carboxamido)piperidin-1-yl)-2-oxoacetic acid]
< 50 nM | Cc1cc(OCCCc2c(C(=O)N[C@H]3CC[C@@H](C(=O)O)C3)[nH]c3c(-c4c(C)nn(C)c4C)c(Cl)ccc23)cc(C)c1Cl [I-330, (1R,3S)-3-(6-chloro-3-(3-(4-chloro-3,5-dimethylphenoxy)propyl)-7-(1,3,5-trimethyl-1H-pyrazol-4-yl)-1H-indole-2-carboxamido)cyclopentane-1-carboxylic acid]
< 50 nM | Cc1cc(OCCCc2c(C(=O)NCc3cccc(C(=O)O)c3)[nH]c3c(-c4c(CN5CCCC5)nn(C)c4C)cccc23)cc(C)c1Cl [I-34, 3-((3-(3-(4-chloro-3,5-dimethylphenoxy)propyl)-7-(1,5-dimethyl-3-(pyrrolidin-1-ylmethyl)-1H-pyrazol-4-yl)-1H-indole-2-carboxamido)methyl)benzoic acid]
< 50 nM | Cc1cc(OCCCc2c3n(c4c(-c5c(C)nn(C)c5C)cccc24)CCN(Cc2cccc(-c4nnn[nH]4)c2)C3=O)cc(C)c1Cl [I-85, 2-(3-(1H-tetrazol-5-yl)benzyl)-10-(3-(4-chloro-3,5-dimethylphenoxy)propyl)-6-(1,3,5-trimethyl-1H-pyrazol-4-yl)-3,4-dihydropyrazino[1,2-a]indol-1(2H)-one]
< 50 nM | Cc1cc(OCCCc2c3n(c4c(-c5c(C)nn(C)c5C)c(Cl)ccc24)CCCN(c2cc(C(=O)O)cc(N4CCN(C)CC4)c2)C3=O)cc(C)c1Cl [I-219, 3-(8-chloro-11-(3-(4-chloro-3,5-dimethylphenoxy)propyl)-1-oxo-7-(1,3,5-trimethyl-1H-pyrazol-4-yl)-4,5-dihydro-1H-[1,4]diazepino[1,2-a]indol-2(3H)-yl)-5-(4-methylpiperazin-1-yl)benzoic acid]
< 50 nM | Cc1cc(OCCCc2c3n(c4c(-c5c(C)nn(C)c5C)c(Cl)ccc24)CCCN(CC(=O)N[C@@H](Cc2ccccc2)C(=O)O)C3=O)cc(C)c1Cl [I-305, (2-(8-chloro-11-(3-(4-chloro-3,5-dimethylphenoxy)propyl)-1-oxo-7-(1,3,5-trimethyl-1H-pyrazol-4-yl)-4,5-dihydro-1H-[1,4]diazepino[1,2-a]indol-2(3H)-yl)acetyl)-L-phenylalanine]
< 50 nM | Cc1cc(OCCCc2c(C(=O)NCc3cc(C(=O)O)c(C)o3)[nH]c3c(-c4c(C)nn(C)c4C)cccc23)cc(C)c1Cl [I-273, 5-((3-(3-(4-chloro-3,5-dimethylphenoxy)propyl)-7-(1,3,5-trimethyl-1H-pyrazol-4-yl)-1H-indole-2-carboxamido)methyl)-2-methylfuran-3-carboxylic acid]
< 50 nM | Cc1cc(OCCCc2c3n(c4c(-c5c(C)nn(C)c5C)c(Cl)ccc24)CCCN(c2nc(C(=O)O)cs2)C3=O)cc(C)c1Cl [I-359, 2-(8-chloro-11-(3-(4-chloro-3,5-dimethylphenoxy)propyl)-1-oxo-7-(1,3,5-trimethyl-1H-pyrazol-4-yl)-4,5-dihydro-1H-[1,4]diazepino[1,2-a]indol-2(3H)-yl)thiazole-4-carboxylic acid]
< 50 nM | Cc1cc(OCCCc2c3n(c4c(-c5c(C)nn(C)c5C)c(Cl)ccc24)CCCN(c2cc(C(=O)O)c4c(ccn4C)c2)C3=O)cc(C)c1Cl [I-250, 5-(8-chloro-11-(3-(4-chloro-3,5-dimethylphenoxy)propyl)-1-oxo-7-(1,3,5-trimethyl-1H-pyrazol-4-yl)-4,5-dihydro-1H-[1,4]diazepino[1,2-a]indol-2(3H)-yl)-1-methyl-1H-indole-7-carboxylic acid]
< 50 nM | Cc1cc(OCCCc2c(C(=O)Nc3cc(C(=O)O)cc(N4CCN(C)CC4)c3)[nH]c3c(-c4c(C)nn(C)c4C)c(Cl)ccc23)cc(C)c1Cl [I-207, 3-(6-chloro-3-(3-(4-chloro-3,5-dimethylphenoxy)propyl)-7-(1,3,5-trimethyl-1H-pyrazol-4-yl)-1H-indole-2-carboxamido)-5-(4-methylpiperazin-1-yl)benzoic acid]
< 50 nM | Cc1cc(OCCCc2c(C(=O)NCc3cccc(C(=O)O)c3)[nH]c3c(-c4c(C)n[nH]c4C)cccc23)cc(C)c1Cl [I-25a, 3-((3-(3-(4-chloro-3,5-dimethylphenoxy)propyl)-7-(3,5-dimethyl-1H-pyrazol-4-yl)-1H-indole-2-carboxamido)methyl)benzoic acid]

SMILES | Ki
Cc1cc(OCCCc2c3n(c4c(-c5c(C)nn(C)c5C)c(Cl)ccc24)C(C)CN(Cc2cccc(C(=O)O)c2)C3=O)cc(C)c1Cl (stereo not drawn) [I-131, 3-((7-chloro-10-(3-(4-chloro-3,5-dimethylphenoxy)propyl)-4-methyl-1-oxo-6-(1,3,5-trimethyl-1H-pyrazol-4-yl)-3,4-dihydropyrazino[1,2-a]indol-2(1H)-yl)methyl)benzoic acid] | < 50 nM
Cc1cc(OCCCc2c(C(=O)NCCC(=O)NS(=O)(=O)c3ccccc3[N+](=O)[O-])[nH]c3ccccc23)cc(C)c1Cl [I-20, 3-(3-(4-chloro-3,5-dimethylphenoxy)propyl)-N-(3-((2-nitrophenyl)sulfonamido)-3-oxopropyl)-1H-indole-2-carboxamide] | 101 to 299 nM
Cc1cc(OCCCc2c(C(=O)N3CCN(c4ccc(C(=O)O)cc4)CC3)n(Cc3ccccc3)c3c(-c4c(C)nn(C)c4C)c(Cl)ccc23)cc(C)c1Cl [I-342, 4-(4-(1-benzyl-6-chloro-3-(3-(4-chloro-3,5-dimethylphenoxy)propyl)-7-(1,3,5-trimethyl-1H-pyrazol-4-yl)-1H-indole-2-carbonyl)piperazin-1-yl)benzoic acid] | 51 to 100 nM
Cc1cc(OCCCc2c3n(c4c(-c5c(C)nn(C)c5C)c(Cl)ccc24)CCCN(Cc2cc(OCCCC(C)C)cc(C(=O)O)c2)C3=O)cc(C)c1Cl [I-301, 3-((8-chloro-11-(3-(4-chloro-3,5-dimethylphenoxy)propyl)-1-oxo-7-(1,3,5-trimethyl-1H-pyrazol-4-yl)-4,5-dihydro-1H-[1,4]diazepino[1,2-a]indol-2(3H)-yl)methyl)-5-((4-methylpentyl)oxy)benzoic acid] | < 50 nM
Cc1cc(OCCCc2c3n(c4c(-c5c(C)nn(C)c5C)cccc24)CCCN(Cc2cc(Br)cc(C(=O)O)c2)C3=O)cc(C)c1Cl [I-296, 3-bromo-5-((11-(3-(4-chloro-3,5-dimethylphenoxy)propyl)-1-oxo-7-(1,3,5-trimethyl-1H-pyrazol-4-yl)-4,5-dihydro-1H-[1,4]diazepino[1,2-a]indol-2(3H)-yl)methyl)benzoic acid] | 51 to 100 nM

Same assay, conditions: Table 2; Ki bins given in μM; FITC-Bak or FITC-Bim peptide competition; Ki converted from IC50; read-out: Ki for Inhibition of Mcl-1

SMILES | Ki
Cc1cc(OCCCc2c(C(=O)N3CCC(N4CCOCC4)CC3)[nH]c3ccccc23)cc(C)c1Cl [I-47, (3-(3-(4-chloro-3,5-dimethylphenoxy)propyl)-1H-indol-2-yl)(4-morpholinopiperidin-1-yl)methanone] | 10000 to 50000 nM
